In patent US20250340557A1, “PYRIMIDINE DERIVATIVE” (ASKA PHARMACEUTICAL CO., LTD., priority 2022, published 2025) one finds IC50 data, which are given here for 23 compounds.

The structures appear in SMILES notation.

In this test the target is T1, human mPGES-1 (Homo sapiens, UniProt O14684).
T1 construct: made in house; host or cells: COS-1 cells (transient transfection; microsomal fraction used as enzyme)
T1 sequence (O14684 1-152): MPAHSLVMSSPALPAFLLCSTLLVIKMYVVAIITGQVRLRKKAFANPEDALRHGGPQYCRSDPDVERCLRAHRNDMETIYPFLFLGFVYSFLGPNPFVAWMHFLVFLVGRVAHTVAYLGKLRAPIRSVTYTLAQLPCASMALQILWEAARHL
As to the kind of experiment: Test for mPGES-1 inhibitory activity (microsomal enzyme, PGE2 EIA). Format: biochemical. Particulars: microsomes from COS-1 cells transfected with human mPGES-1 cDNA; substrate PGH2 1 μM; 4° C., 4 minutes; PGE2 measured by EIA; read-out: h mPGES1 IC50. As for the experimental part:
Test Example 1: Test for mPGES-1 Inhibitory Activity
Microsomes were prepared from COS-1 cells transiently transfected with a plasmid containing human mPGES-1 cDNA, and used as mPGES-1 enzyme. The mPGES-1 enzyme was diluted with a sodium phosphate buffer (pH 7.2) containing reduced glutathione (2.5 mM) and EDTA (1 mM), DMSO or a DMSO solution of a test compound (final concentration of DMSO was 2%) was added to the enzyme, and the mixture was preincubated at 4° C. for 15 minutes. Then, PGH2 (Prostaglandin H2) as the substrate was added at a final concentration of 1 μM to start the enzymatic reaction, and after incubation at 4° C. for 4 minutes, a solution of ferric chloride (25 mM) and citric acid (50 mM) was added to terminate the enzymatic reaction. Generated PGE2 (Prostaglandin E2) was measured by using Prostaglandin E2 Express EIA Kit (Cayman Chemical). IC50 values were determined by using a standard method.
For orientation: IC50 means the concentration needed to halve the response being measured. With `O=c1cc(C(F)(F)F)nc(-c2c(C(F)(F)F)ccc(CNC(=O)[C@H]3C[C@@H](OCc4cccc(Cl)c4)C3)c2F)[nH]1` (stereo in doubt) [Example 139, cis-3-[(3-chlorobenzyl)oxy]-N-{2-fluoro-3-[6-oxo-4-(trifluoromethyl)-1,6-dihydropyrimidin-2-yl]-4-(trifluoromethyl)benzyl}cyclobutane-1-carboxamide], the IC50 was under 1 nM. On to `O=C(NCc1ccc(C(F)(F)F)c(-c2nc(C(F)(F)F)cc(=O)[nH]2)c1F)C1CCN(c2ccc3nccn3n2)CC1` [Example 1, N-{2-fluoro-3-[6-oxo-4-(trifluoromethyl)-1,6-dihydropyrimidin-2-yl]-4-(trifluoromethyl)benzyl}-1-(imidazo[1,2-b]pyridazin-6-yl)piperidine-4-carboxamide], for which the IC50 was found to be 37 nM. Take `O=C(NCc1ccc(C(F)(F)F)c(-c2nc(C(F)(F)F)cc(=O)[nH]2)c1F)c1ccc(-c2ccc3nccn3n2)cc1` [Example 2, N-{2-fluoro-3-[6-oxo-4-(trifluoromethyl)-1,6-dihydropyrimidin-2-yl]-4-(trifluoromethyl)benzyl}-4-(imidazo[1,2-b]pyridazin-6-yl)benzamide]: the IC50 was 28.7 nM.

Turning to `Cc1cnc2ccc(N3CCC(C(=O)NCc4ccc(C(F)(F)F)c(-c5nc(C(F)(F)F)cc(=O)[nH]5)c4F)CC3)nn12` [Example 3, N-{2-fluoro-3-[6-oxo-4-(trifluoromethyl)-1,6-dihydropyrimidin-2-yl]-4-(trifluoromethyl)benzyl}-1-(3-methylimidazo[1,2-b]pyridazin-6-yl)piperidine-4-carboxamide], the IC50 is under 1 nM.

Regarding `Cc1cccc2ccc(N3CCC(C(=O)NCc4ccc(C(F)(F)F)c(-c5nc(C(F)(F)F)cc(=O)[nH]5)c4F)CC3)nc12` [Example 4, N-{2-fluoro-3-[6-oxo-4-(trifluoromethyl)-1,6-dihydropyrimidin-2-yl]-4-(trifluoromethyl)benzyl}-1-(8-methylquinolin-2-yl)piperidine-4-carboxamide], the IC50 is under 1 nM.

As to `O=C(NCc1ccc(C(F)(F)F)c(-c2nc(C(F)(F)F)cc(=O)[nH]2)c1F)C1CCN(c2ccc3ccccc3n2)CC1` [Example 5, N-{2-fluoro-3-[6-oxo-4-(trifluoromethyl)-1,6-dihydropyrimidin-2-yl]-4-(trifluoromethyl)benzyl}-1-(quinolin-2-yl)piperidine-4-carboxamide], the half-inhibitory concentration (IC50) is under 10 nM. Next, `Cc1cccc2ccc(N3CC(C(=O)NCc4ccc(C(F)(F)F)c(-c5nc(C(F)(F)F)cc(=O)[nH]5)c4F)C3)nc12` [Example 6, N-{2-fluoro-3-[6-oxo-4-(trifluoromethyl)-1,6-dihydropyrimidin-2-yl]-4-(trifluoromethyl)benzyl}-1-(8-methylquinolin-2-yl)azetidine-3-carboxamide]: under 10 nM. For the compound `Cc1cccc2ccc(N3CCC(C(=O)NCc4ccc(C(F)(F)F)c(-c5nccc(=O)[nH]5)c4F)CC3)nc12` [Example 7, N-[2-fluoro-3-(6-oxo-1,6-dihydropyrimidin-2-yl)-4-(trifluoromethyl)benzyl]-1-(8-methylquinolin-2-yl)piperidine-4-carboxamide], the IC50 was under 1 nM. Regarding `Cc1cccc2ccc(N3CCC(C(=O)NCc4ccc(Cl)c(-c5nccc(=O)[nH]5)c4)CC3)nc12` [Example 8, N-[4-chloro-3-(6-oxo-1,6-dihydropyrimidin-2-yl)benzyl]-1-(8-methylquinolin-2-yl)piperidine-4-carboxamide], the IC50 turned out to be 0.64 nM. For `Cc1cc(=O)[nH]c(-c2c(C(F)(F)F)ccc(CNC(=O)C3CCN(c4ccc5cccc(C)c5n4)CC3)c2F)n1` [Example 9, N-[2-fluoro-3-(4-methyl-6-oxo-1,6-dihydropyrimidin-2-yl)-4-(trifluoromethyl)benzyl]-1-(8-methylquinolin-2-yl)piperidine-4-carboxamide], the IC50 is under 10 nM. Regarding `CCc1cc(=O)[nH]c(-c2c(C(F)(F)F)ccc(CNC(=O)C3CCN(c4ccc5cccc(C)c5n4)CC3)c2F)n1` [Example 10, N-[3-(4-ethyl-6-oxo-1,6-dihydropyrimidin-2-yl)-2-fluoro-4-(trifluoromethyl)benzyl]-1-(8-methylquinolin-2-yl)piperidine-4-carboxamide], the IC50 was under 1 nM. As to `Cc1cccc2ccc(N3CCC(C(=O)NCc4ccc(C(F)(F)F)c(-c5nc(C(C)C)cc(=O)[nH]5)c4F)CC3)nc12` [Example 11, N-[2-fluoro-3-(4-isopropyl-6-oxo-1,6-dihydropyrimidin-2-yl)-4-(trifluoromethyl)benzyl]-1-(8-methylquinolin-2-yl)piperidine-4-carboxamide], the IC50 is under 1 nM. Next, `Cc1cccc2ccc(N3CCC(C(=O)NCc4ccc(C(F)(F)F)c(-c5nc(C(F)F)cc(=O)[nH]5)c4F)CC3)nc12` [Example 12, N-{3-[4-(difluoromethyl)-6-oxo-1,6-dihydropyrimidin-2-yl]-2-fluoro-4-(trifluoromethyl)benzyl}-1-(8-methylquinolin-2-yl)piperidine-4-carboxamide]: 2.1 nM; `Cc1nc(-c2c(C(F)(F)F)ccc(CNC(=O)C3CCN(c4ccc5cccc(C)c5n4)CC3)c2F)[nH]c(=O)c1C` [Example 13, N-[3-(4,5-dimethyl-6-oxo-1,6-dihydropyrimidin-2-yl)-2-fluoro-4-(trifluoromethyl)benzyl]-1-(8-methylquinolin-2-yl)piperidine-4-carboxamide]: 2.4 nM; `Cc1nc(-c2c(C(F)(F)F)ccc(CNC(=O)C3CCN(c4ccc5cccc(C)c5n4)CC3)c2F)[nH]c(=O)c1F` [Example 14, N-[2-fluoro-3-(5-fluoro-4-methyl-6-oxo-1,6-dihydropyrimidin-2-yl)-4-(trifluoromethyl)benzyl]-1-(8-methylquinolin-2-yl)piperidine-4-carboxamide]: under 1 nM. Consider `Cc1cccc2ccc(N3CCC(F)(C(=O)NCc4ccc(C(F)(F)F)c(-c5nc(C(F)(F)F)cc(=O)[nH]5)c4F)CC3)nc12` [Example 15, 4-fluoro-N-{2-fluoro-3-[6-oxo-4-(trifluoromethyl)-1,6-dihydropyrimidin-2-yl]-4-(trifluoromethyl)benzyl}-1-(8-methylquinolin-2-yl)piperidine-4-carboxamide], for which the half-maximal inhibitory concentration (IC50) is under 1 nM.

As to `Cc1cccc(N2CCC(C(=O)NCc3ccc(C(F)(F)F)c(-c4nc(C(F)(F)F)cc(=O)[nH]4)c3F)CC2)n1` [Example 17, N-{2-fluoro-3-[6-oxo-4-(trifluoromethyl)-1,6-dihydropyrimidin-2-yl]-4-(trifluoromethyl)benzyl}-1-(6-methylpyridin-2-yl)piperidine-4-carboxamide], the IC50 is under 10 nM. `O=C(NCc1ccc(C(F)(F)F)c(-c2nc(C(F)(F)F)cc(=O)[nH]2)c1F)C1CCN(c2ccccn2)CC1` [Example 19, N-{2-fluoro-3-[6-oxo-4-(trifluoromethyl)-1,6-dihydropyrimidin-2-yl]-4-(trifluoromethyl)benzyl}-1-(pyridin-2-yl)piperidine-4-carboxamide]: the IC50 is under 1 nM. As to `O=C(NCc1ccc(C(F)(F)F)c(-c2nc(C(F)(F)F)cc(=O)[nH]2)c1F)C1CCN(c2ccc(C(F)(F)F)cn2)CC1` [Example 20, N-{2-fluoro-3-[6-oxo-4-(trifluoromethyl)-1,6-dihydropyrimidin-2-yl]-4-(trifluoromethyl)benzyl}-1-[5-(trifluoromethyl)pyridin-2-yl]piperidine-4-carboxamide], the IC50 is under 1 nM.

For `O=C(NCc1ccc(C(F)(F)F)c(-c2nc(C(F)(F)F)cc(=O)[nH]2)c1F)C1CCN(c2ccc(C(F)(F)F)nc2)CC1` [Example 21, N-{2-fluoro-3-[6-oxo-4-(trifluoromethyl)-1,6-dihydropyrimidin-2-yl]-4-(trifluoromethyl)benzyl}-1-[6-(trifluoromethyl)pyridin-3-yl]piperidine-4-carboxamide], the IC50 is under 1 nM. `O=C(NCc1ccc(C(F)(F)F)c(-c2nc(C(F)(F)F)cc(=O)[nH]2)c1F)C1CCN(c2cccc(C(F)(F)F)n2)CC1` [Example 22, N-{2-fluoro-3-[6-oxo-4-(trifluoromethyl)-1,6-dihydropyrimidin-2-yl]-4-(trifluoromethyl)benzyl}-1-[6-(trifluoromethyl)pyridin-2-yl]piperidine-4-carboxamide]: the IC50 is 4.9 nM. Regarding `CCc1cc(=O)[nH]c(-c2c(C(F)(F)F)ccc(CNC(=O)C3CCN(c4ccc(C(F)(F)F)cn4)CC3)c2F)n1` [Example 23, N-[3-(4-ethyl-6-oxo-1,6-dihydropyrimidin-2-yl)-2-fluoro-4-(trifluoromethyl)benzyl]-1-[5-(trifluoromethyl)pyridin-2-yl]piperidine-4-carboxamide], the IC50 worked out at 4.8 nM. With `CCc1cc(=O)[nH]c(-c2c(C(F)(F)F)ccc(CNC(=O)C3CCN(c4cccc(C)n4)CC3)c2F)n1` [Example 24, N-[3-(4-ethyl-6-oxo-1,6-dihydropyrimidin-2-yl)-2-fluoro-4-(trifluoromethyl)benzyl]-1-(6-methylpyridin-2-yl)piperidine-4-carboxamide], the IC50 came to 76 nM.
